The test concerns DNA polymerase. The settings on record: surface-anchored primer/template DNA, stepwise reactions, FIG. 2(b); Cy5-dCTP detected by spFRET with Cy3-dUTP. On the procedure:
FIG. 2a(1) is an image of the slide surface: Annealed primer/template DNA molecules detected by Cy3 fluorescence from the labeled primer. Scale bar, 10 µm. […] FIG. 2a(3) is an image of the slide surface: Labeled nucleotide fluorescence after successful incorporation by DNA polymerase. Note; prior to the incorporation reaction, the primer fluorescence shown in FIG. 2a(1) was photo-bleached. After incubation of template DNA molecules with DNA polymerase and a labeled dNTP, the sequencing chamber was flushed to prevent fluorescent detection of unincorporated labeled dNTPs. […] FIG. 2a(5) is an overlay of the primer/template positions with the labeled nucleotide positions.
Observations of single-molecule fluorescence can be made using a conventional microscope equipped with total internal reflection (TIR) illumination. […] First, the surface of a quartz slide is chemically treated to specifically anchor template nucleic acid molecules while preventing non-specific binding of labeled dNTPs present in the sequencing reaction. A plastic flow cell is then attached to the surface of the slide to facilitate the exchange of buffers and reagents. Next, biotinylated oligonucleotides, serving as sequencing templates, are annealed to a fluorescently labeled primer. Template nucleic acid molecules are bound to the slide surface via streptavidin and biotin at a surface density low enough to resolve single nucleic acid molecules. The primed templates are detected via their fluorescent tags and their locations are recorded for future reference. After noting the location of each template nucleic acid molecule, their fluorescent tags are photo-bleached. Labeled dNTPs and polymerase (or polymerizing agent) are then washed in and out of the flow cell, one dNTP at a time, while the known locations of the template nucleic acid molecules are monitored for fluorescence, an indication that the primer annealed to the template nucleic acid molecule had been extended by one labeled nucleotide.
As to Cy5-dCTP, the “incorporation of labeled dNTP by DNA polymerase (selectivity and fidelity)” value (“incorporation … (selectivity and fidelity)” for short) is on record as “correctly incorporated”. Take Cy3-dUTP: the “incorporation … (selectivity and fidelity)” value is “correctly incorporated”. In the case of Cy5-dUTP, the “incorporation … (selectivity and fidelity)” value was “correctly refusing to incorporate”. As for `CCN1/C(=C/C=C/C2=[N+](CCCCCC(=O)NCC#Cc3cn(C4CC(O)C(COP(=O)([O-])OP(=O)([O-])OP(=O)([O-])[O-])O4)c(=O)nc3N)c3cc(S(=O)(=O)O)ccc3C2(C)C)C(C)(C)c2ccc(S(=O)(=O)[O-])cc21.[Li+].[Li+].[Li+].[Li+]` (stereo not shown) [Cy3-dCTP], the entry is “correctly refusing to incorporate”.

For the origin of these results see patent US20100190151A1 (priority 2003, published 2010).
